Assay results reported in ChEMBL document CHEMBL1138436, “Biological activity and chemistry of taxoids from the Japanese yew, Taxus cuspidata” (J Nat Prod, 2004).

Key:
Format in all cases: functional
[1] = test system: MKN-7; assay: Growth inhibition of human MKN7 cells
[2] = test system: HT-29; assay: Growth inhibition of human HT-29 cells
[3] = test system: HCT-15; assay: Growth inhibition of human HCT15 cells
[4] = test system: PC-3; assay: Growth inhibition of human PC3 cells
[5] = Growth inhibition of human HBC5 cells
[6] = test system: MDA-MB-231; assay: Growth inhibition of human MDA-MB-231 cells
[7] = Growth inhibition of human RXF631L cells
[8] = test system: DU-145; assay: Growth inhibition of human DU145 cells
[9] = test system: LOX IMVI; assay: Growth inhibition of human LOXIMVI cells
[10] = test system: NCI-H226; assay: Growth inhibition of human NCI-H226 cells
[11] = test system: SK-OV-3; assay: Growth inhibition of human SKOV3 cells
[12] = test system: OVCAR-3; assay: Growth inhibition of human OVCAR-3 cells
[13] = test system: MKN-45; assay: Growth inhibition of human MKN45 cells
[14] = test system: HCC 2998; assay: Growth inhibition of human HCC2998 cells
[15] = test system: OVCAR-5; assay: Growth inhibition of human OVCAR5 cells
[16] = test system: MCF7; assay: Growth inhibition of human MCF7 cells
[17] = test system: A549; assay: Growth inhibition of human A549 cells
[18] = test system: NCI-H23; assay: Growth inhibition of human NCI-H23 cells
[19] = Growth inhibition of human MKN1 cells
[20] = test system: DMS-114; assay: Growth inhibition of human DMS114 cells
[21] = test system: KM12; assay: Growth inhibition of human KM12 cells
[22] = test system: SNB-78; assay: Growth inhibition of human SNB78 cells
[23] = Growth inhibition of human BSY1 cells
[24] = test system: NCI-H522; assay: Growth inhibition of human NCI-H522 cells
[25] = test system: SF-295; assay: Growth inhibition of human SF295 cells
[26] = test system: NCI-H460; assay: Growth inhibition of human NCI-H460 cells
[27] = test system: St-4; assay: Growth inhibition of human St-4 cells
[28] = test system: OVCAR-4; assay: Growth inhibition of human OVCAR4 cells
[29] = read-out: LC50 (the source's name)
[30] = read-out: pLC50 (the source's name) (converted)

## C=C1[C@@H](OC(=O)/C=C/c2ccccc2)C[C@H](OC(C)=O)[C@]2(C)[C@@H]1C[C@]1(C(C)(C)O)C[C@H](OC(C)=O)C(C)=C1[C@@H](OC(=O)c1ccccc1)[C@@H]2OC(C)=O [TAXUSPINE A]
[1]
  TGI: > 100 µM
[1]; read-out: GI50
  GI50: 5.1 µM
[1]; [29]
  CC50: > 100 µM
[1]; read-out: pGI50 (converted)
  GI50: 5.13 µM
[2]; read-out: GI50
  GI50: 43 µM
[2]; [29]
  CC50: > 100 µM
[2]; read-out: TGI
  TGI: > 100 µM
[2]; read-out: pGI50 (converted)
  GI50: 43.7 µM
[2]; read-out: pTGI (converted)
  TGI: 100 µM
[3]; read-out: GI50
  GI50: 29 µM
[3]; [29]
  CC50: > 100 µM
[3]; read-out: TGI
  TGI: > 100 µM
[3]; read-out: pGI50 (converted)
  GI50: 28.8 µM
[3]; [30]
  CC50: 100 µM
[3]; read-out: pTGI (converted)
  TGI: 100 µM
[4]; read-out: GI50
  GI50: 5.2 µM
[4]; [29]
  CC50: > 100 µM
[4]; read-out: TGI
  TGI: > 100 µM
[4]; read-out: pGI50 (converted)
  GI50: 5.25 µM
[4]; read-out: pTGI (converted)
  TGI: 100 µM
[5]; read-out: GI50
  GI50: 100 µM
[5]; [29]
  CC50: > 100 µM
[5]; read-out: TGI
  TGI: > 100 µM
[5]; read-out: pGI50 (converted)
  GI50: 25.1 µM
[5]; read-out: pTGI (converted)
  TGI: 100 µM
[6]; read-out: GI50
  GI50: 16 µM
[6]; [29]
  CC50: > 100 µM
[6]; read-out: TGI
  TGI: > 100 µM
[6]; read-out: pGI50 (converted)
  GI50: 16.2 µM
[6]; [30]
  CC50: 100 µM
[6]; read-out: pTGI (converted)
  TGI: 100 µM
[7]; RXF 631
  TGI: > 100 µM
[7]; RXF 631, read-out: GI50
  GI50: 100 µM
[7]; RXF 631, read-out: LC50 (the source's name)
  CC50: > 100 µM
[7]; RXF 631, read-out: pGI50 (converted)
  GI50: 100 µM
[7]; RXF 631, read-out: pLC50 (the source's name) (converted)
  CC50: 100 µM
[8]
  TGI: > 100 µM
[8]; read-out: GI50
  GI50: 100 µM
[8]; [29]
  CC50: > 100 µM
[8]; read-out: pGI50 (converted)
  GI50: 100 µM
[8]; [30]
  CC50: 100 µM
[9]; read-out: GI50
  GI50: 38 µM
[9]; [29]
  CC50: > 100 µM
[9]; read-out: TGI
  TGI: > 100 µM
[9]; read-out: pGI50 (converted)
  GI50: 38 µM
[9]; read-out: pTGI (converted)
  TGI: 100 µM
[10]; read-out: GI50
  GI50: 21 µM
[10]; [29]
  CC50: > 100 µM
[10]; read-out: TGI
  TGI: > 100 µM
[10]; read-out: pGI50 (converted)
  GI50: 83.2 µM
[10]; [30]
  CC50: 100 µM
[10]; read-out: pTGI (converted)
  TGI: 100 µM
[11]; read-out: GI50
  GI50: 100 µM
[11]; [29]
  CC50: > 100 µM
[11]; read-out: TGI
  TGI: > 100 µM
[11]; read-out: pGI50 (converted)
  GI50: 100 µM
[11]; [30]
  CC50: 100 µM
[11]; read-out: pTGI (converted)
  TGI: 100 µM
[12]; read-out: GI50
  GI50: 5 µM
[12]; [29]
  CC50: > 100 µM
[12]; read-out: TGI
  TGI: > 100 µM
[12]; read-out: pGI50 (converted)
  GI50: 5.01 µM
[12]; [30]
  CC50: 100 µM
[12]; read-out: pTGI (converted)
  TGI: 100 µM
[13]; read-out: GI50
  GI50: > 100 µM
[13]; [29]
  CC50: > 100 µM
[13]; read-out: TGI
  TGI: > 100 µM
[13]; read-out: pGI50 (converted)
  GI50: 100 µM
[13]; [30]
  CC50: 100 µM
[13]; read-out: pTGI (converted)
  TGI: 100 µM
[14]
  TGI: > 100 µM
[14]; read-out: GI50
  GI50: 26 µM
[14]; [29]
  CC50: > 100 µM
[14]; read-out: pGI50 (converted)
  GI50: 26.3 µM
[15]; read-out: GI50
  GI50: 32 µM
[15]; [29]
  CC50: > 100 µM
[15]; read-out: TGI
  TGI: > 100 µM
[15]; read-out: pGI50 (converted)
  GI50: 32.4 µM
[15]; [30]
  CC50: 100 µM
[15]; read-out: pTGI (converted)
  TGI: 100 µM
[16]; read-out: GI50
  GI50: 9.3 µM
[16]; [29]
  CC50: > 100 µM
[16]; read-out: TGI
  TGI: > 100 µM
[16]; read-out: pGI50 (converted)
  GI50: 9.33 µM
[16]; [30]
  CC50: 100 µM
[16]; read-out: pTGI (converted)
  TGI: 100 µM
[17]; read-out: GI50
  GI50: 9.6 µM
[17]; [29]
  CC50: > 100 µM
[17]; read-out: TGI
  TGI: > 100 µM
[17]; read-out: pGI50 (converted)
  GI50: 9.55 µM
[17]; [30]
  CC50: 100 µM
[17]; read-out: pTGI (converted)
  TGI: 100 µM
[18]; read-out: GI50
  GI50: 100 µM
[18]; [29]
  CC50: > 100 µM
[18]; read-out: TGI
  TGI: > 100 µM
[18]; read-out: pGI50 (converted)
  GI50: 100 µM
[18]; [30]
  CC50: 100 µM
[19]; MKN-1, read-out: GI50
  GI50: 93 µM
[19]; MKN-1, read-out: LC50 (the source's name)
  CC50: > 100 µM
[19]; MKN-1, read-out: TGI
  TGI: > 100 µM
[19]; MKN-1, read-out: pGI50 (converted)
  GI50: 93.3 µM
[19]; MKN-1, read-out: pLC50 (the source's name) (converted)
  CC50: 100 µM
[19]; MKN-1, read-out: pTGI (converted)
  TGI: 100 µM
[20]; read-out: GI50
  GI50: 7.8 µM
[20]; [29]
  CC50: > 100 µM
[20]; read-out: TGI
  TGI: > 100 µM
[20]; read-out: pGI50 (converted)
  GI50: 7.76 µM
[21]; read-out: GI50
  GI50: 6.4 µM
[21]; [29]
  CC50: > 100 µM
[21]; read-out: TGI
  TGI: > 100 µM
[21]; read-out: pGI50 (converted)
  GI50: 6.46 µM
[21]; [30]
  CC50: 100 µM
[21]; read-out: pTGI (converted)
  TGI: 100 µM
[22]; read-out: GI50
  GI50: 3.2 µM
[22]; [29]
  CC50: > 100 µM
[22]; read-out: TGI
  TGI: > 100 µM
[22]; read-out: pGI50 (converted)
  GI50: 3.16 µM
[22]; [30]
  CC50: 100 µM
[22]; read-out: pTGI (converted)
  TGI: 100 µM
[23]; BSY-1, read-out: GI50
  GI50: 6.9 µM
[23]; BSY-1, read-out: LC50 (the source's name)
  CC50: > 100 µM
[23]; BSY-1, read-out: TGI
  TGI: 82 µM
[23]; BSY-1, read-out: pGI50 (converted)
  GI50: 6.92 µM
[23]; BSY-1, read-out: pLC50 (the source's name) (converted)
  CC50: 100 µM
[23]; BSY-1, read-out: pTGI (converted)
  TGI: 87.1 µM
[24]; read-out: GI50
  GI50: 3.1 µM
[24]; [29]
  CC50: > 100 µM
[24]; read-out: TGI
  TGI: 81 µM
[24]; read-out: pGI50 (converted)
  GI50: 3.09 µM
[24]; read-out: pTGI (converted)
  TGI: 81.3 µM
[25]; read-out: GI50
  GI50: 10 µM
[25]; [29]
  CC50: > 100 µM
[25]; read-out: TGI
  TGI: > 100 µM
[25]; read-out: pGI50 (converted)
  GI50: 11 µM
[25]; read-out: pTGI (converted)
  TGI: 100 µM
[26]; read-out: GI50
  GI50: 44 µM
[26]; [29]
  CC50: > 100 µM
[26]; read-out: TGI
  TGI: > 100 µM
[26]; read-out: pGI50 (converted)
  GI50: 43.7 µM
[26]; read-out: pTGI (converted)
  TGI: 100 µM
[27]; read-out: GI50
  GI50: 24 µM
[27]; [29]
  CC50: > 100 µM
[27]; read-out: TGI
  TGI: > 100 µM
[27]; read-out: pGI50 (converted)
  GI50: 24 µM
[27]; [30]
  CC50: 100 µM
[27]; read-out: pTGI (converted)
  TGI: 100 µM
[28]; read-out: GI50
  GI50: 22 µM
[28]; [29]
  CC50: > 100 µM
[28]; read-out: TGI
  TGI: > 100 µM
[28]; read-out: pGI50 (converted)
  GI50: 22.4 µM
[28]; [30]
  CC50: 100 µM
[28]; read-out: pTGI (converted)
  TGI: 100 µM
